Key:
Format in all cases: biochemical
[1] = target: T1, recombinant human MAO-A (monoamine oxidase-A) (Homo sapiens, UniProt P21397); test: Activity on recombinant human MAO-A, method similar to the VAP-1 assay; settings: substrate 0.5 mM tyramine; read-out: Inhibitory Activity (IC50, nM) MAO-A
T1 construct: purchased Sigma-Aldrich
T1 sequence (P21397 1-527): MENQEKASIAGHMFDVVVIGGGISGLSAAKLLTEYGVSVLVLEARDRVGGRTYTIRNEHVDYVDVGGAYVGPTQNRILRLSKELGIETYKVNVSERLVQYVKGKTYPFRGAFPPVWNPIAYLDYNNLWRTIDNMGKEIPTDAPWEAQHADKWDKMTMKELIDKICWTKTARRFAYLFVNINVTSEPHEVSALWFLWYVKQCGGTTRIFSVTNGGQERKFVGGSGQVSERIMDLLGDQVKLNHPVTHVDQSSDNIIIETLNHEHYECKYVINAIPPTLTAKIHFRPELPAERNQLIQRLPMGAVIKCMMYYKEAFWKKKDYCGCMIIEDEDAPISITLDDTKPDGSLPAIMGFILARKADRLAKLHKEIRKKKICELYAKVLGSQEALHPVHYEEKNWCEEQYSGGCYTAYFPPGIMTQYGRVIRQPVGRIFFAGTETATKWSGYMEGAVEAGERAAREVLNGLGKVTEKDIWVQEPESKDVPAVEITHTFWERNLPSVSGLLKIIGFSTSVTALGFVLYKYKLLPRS
Method in brief: (§1)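 8-point, 1:3 dose-response, four-parameter logistic IC50 from reduction in fluorescence rate versus DMSO control. HRP/Amplex Red detection of H2O2 (ex 544, em 590 nm) after 30 min, 37 °C compound–enzyme preincubation in pH 7.4 phosphate buffer. MAO-A substrate: 0.5 mM tyramine; MAO-B: 1 mM benzylamine.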

[2] = target: T2, recombinant human DAO (diamine oxidase) (Homo sapiens, UniProt P19801); test: Activity on recombinant human DAO, method similar to the VAP-1 assay; settings: substrate 1 mM putrescine; read-out: Inhibitory Activity (IC50, nM) DAO
T2 construct: purchased R&D systems
T2 sequence (P19801 20-751): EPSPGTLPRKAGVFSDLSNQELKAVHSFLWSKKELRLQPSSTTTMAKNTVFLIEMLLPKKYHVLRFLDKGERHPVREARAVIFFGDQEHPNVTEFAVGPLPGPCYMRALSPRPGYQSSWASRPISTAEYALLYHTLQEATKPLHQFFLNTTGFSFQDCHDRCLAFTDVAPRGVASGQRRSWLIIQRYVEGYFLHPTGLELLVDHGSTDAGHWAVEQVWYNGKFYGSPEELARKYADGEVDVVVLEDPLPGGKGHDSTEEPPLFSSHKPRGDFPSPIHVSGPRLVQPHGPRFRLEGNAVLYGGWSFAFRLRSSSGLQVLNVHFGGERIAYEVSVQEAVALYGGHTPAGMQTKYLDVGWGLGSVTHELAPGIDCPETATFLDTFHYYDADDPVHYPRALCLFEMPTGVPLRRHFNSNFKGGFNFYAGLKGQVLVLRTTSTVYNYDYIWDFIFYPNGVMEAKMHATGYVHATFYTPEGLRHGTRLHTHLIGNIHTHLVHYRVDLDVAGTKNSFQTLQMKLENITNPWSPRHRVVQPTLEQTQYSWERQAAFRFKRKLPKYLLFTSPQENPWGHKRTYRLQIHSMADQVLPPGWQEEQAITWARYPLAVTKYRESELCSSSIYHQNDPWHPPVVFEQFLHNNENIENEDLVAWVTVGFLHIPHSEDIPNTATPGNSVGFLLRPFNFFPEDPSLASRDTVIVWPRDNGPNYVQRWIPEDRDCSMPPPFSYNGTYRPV
Method in brief: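 Inhibition of recombinant human diamine oxidase (DAO, R&D systems) was assessed by the same approach as the VAP-1 assay, using 1 mM putrescine as substrate. Hydrogen peroxide formed was detected through an HRP-coupled Amplex Red reaction yielding fluorescent resorufin, read at 544 nm excitation and 590 nm emission. IC50 values came from four-parameter logistic fitting in GraphPad Prism.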

[3] = target: T3, recombinant human VAP-1 (Homo sapiens, UniProt Q16853); test: Activity on recombinant human VAP-1, HRP-coupled Amplex Red hydrogen peroxide assay; settings: substrate 1 mM benzylamine; compound incubated with enzyme at 37° C. for 30 minutes; pH 7.4; read-out: Inhibitory Activity (IC50, nM) human VAP-1
T3 construct: purchased R&D systems
T3 sequence (Q16853 1-763): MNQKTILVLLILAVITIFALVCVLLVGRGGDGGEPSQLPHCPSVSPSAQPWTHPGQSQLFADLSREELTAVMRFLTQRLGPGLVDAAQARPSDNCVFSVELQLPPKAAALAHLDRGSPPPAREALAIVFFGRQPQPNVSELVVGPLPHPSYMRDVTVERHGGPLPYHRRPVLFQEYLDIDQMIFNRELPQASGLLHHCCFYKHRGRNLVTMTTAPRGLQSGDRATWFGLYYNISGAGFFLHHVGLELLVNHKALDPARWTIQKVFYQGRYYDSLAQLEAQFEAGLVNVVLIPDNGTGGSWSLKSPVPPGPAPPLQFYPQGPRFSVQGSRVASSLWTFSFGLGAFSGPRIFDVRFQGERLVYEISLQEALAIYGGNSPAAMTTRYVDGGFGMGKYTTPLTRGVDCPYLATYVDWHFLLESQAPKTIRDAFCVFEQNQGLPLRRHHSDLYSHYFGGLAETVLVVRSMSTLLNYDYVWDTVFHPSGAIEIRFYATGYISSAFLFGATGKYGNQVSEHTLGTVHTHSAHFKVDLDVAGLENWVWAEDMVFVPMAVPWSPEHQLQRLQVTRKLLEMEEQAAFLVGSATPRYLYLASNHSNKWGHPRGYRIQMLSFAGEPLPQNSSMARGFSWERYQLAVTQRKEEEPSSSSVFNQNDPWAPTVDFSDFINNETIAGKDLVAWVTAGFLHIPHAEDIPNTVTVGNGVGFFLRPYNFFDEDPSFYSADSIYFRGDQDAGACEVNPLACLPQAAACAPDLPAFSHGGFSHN
Method in brief: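 Compounds were preincubated with purified enzyme in 50 mM sodium phosphate pH 7.4 at 37 °C for 30 min, then 200 uM Amplex Red, 1 mM benzylamine and 1 U/mL HRP were added. Resorufin fluorescence (ex 544/em 590 nm) was followed over 1-2 h; IC50 came from 4-parameter fits of signal-rate inhibition.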

[4] = target: T4, recombinant human MAO-B (monoamine oxidase-B) (Homo sapiens, UniProt P27338); test: Activity on recombinant human MAO-B, method similar to the VAP-1 assay; settings: substrate 1 mM benzylamine; read-out: Inhibitory Activity (IC50, nM) MAO-B
T4 construct: purchased Sigma-Aldrich
T4 sequence (P27338 1-520): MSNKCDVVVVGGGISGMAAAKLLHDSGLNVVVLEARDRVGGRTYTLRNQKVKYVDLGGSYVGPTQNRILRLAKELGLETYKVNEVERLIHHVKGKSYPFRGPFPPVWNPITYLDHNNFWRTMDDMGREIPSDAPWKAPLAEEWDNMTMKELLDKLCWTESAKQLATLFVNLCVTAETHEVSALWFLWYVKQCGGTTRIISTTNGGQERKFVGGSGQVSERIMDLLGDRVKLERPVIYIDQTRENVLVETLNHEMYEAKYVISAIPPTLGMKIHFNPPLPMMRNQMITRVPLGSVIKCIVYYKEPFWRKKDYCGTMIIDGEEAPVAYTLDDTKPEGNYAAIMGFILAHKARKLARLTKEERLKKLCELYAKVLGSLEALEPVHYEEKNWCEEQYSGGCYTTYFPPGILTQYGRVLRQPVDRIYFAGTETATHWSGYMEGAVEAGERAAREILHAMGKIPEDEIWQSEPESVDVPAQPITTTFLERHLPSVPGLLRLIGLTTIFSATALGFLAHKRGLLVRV
Method in brief: as §1

| Compound | IC50 [1] [nM] | IC50 [2] [nM] | IC50 [3] [nM] | IC50 [4] [nM] |
| --- | --- | --- | --- | --- |
| Cc1cc(-c2ccc(Cn3cnn(C/C(=C/F)CN)c3=O)s2)cnc1N1CCOCC1 [Example 172, 2-[(2E)-2-(aminomethyl)-3-fluoroprop-2-en-1-yl]-4-({5-[5-methyl-6-(morpholin-4-yl)pyridin-3-yl]thiophen-2-yl}methyl)-2,4-dihydro-3H-1,2,4-triazol-3-one] | > 100000 | 490 | 2.8 | 3900 |
| CN(C)c1ncc(-c2ccc(Cn3cnn(C/C(=C/F)CN)c3=O)s2)cc1F [Example 173, 2-[(2E)-2-(aminomethyl)-3-fluoroprop-2-en-1-yl]-4-({5-[6-(dimethylamino)-5-fluoropyridin-3-yl]thiophen-2-yl}methyl)-2,4-dihydro-3H-1,2,4-triazol-3-one] | > 100000 | 1200 | 2.1 | 2000 |
| NC/C(=C\F)Cn1ncn(Cc2ccc(-c3ccc(OCC4CC4)nc3)s2)c1=O [Example 174, 2-[(2E)-2-(aminomethyl)-3-fluoroprop-2-en-1-yl]-4-({5-[6-(cyclopropylmethoxy)pyridin-3-yl]thiophen-2-yl}methyl)-2,4-dihydro-3H-1,2,4-triazol-3-one] | > 100000 | 1000 | 7.7 | 570 |
| NC/C(=C\F)Cn1ncn(Cc2ccc(-c3ccnnc3)s2)c1=O [Example 175, 2-[(2E)-2-(aminomethyl)-3-fluoroprop-2-en-1-yl]-4-{[5-(pyridazin-4-yl)thiophen-2-yl]methyl}-2,4-dihydro-3H-1,2,4-triazol-3-one] | > 100000 | 670 | 3.6 | 4400 |
| CNC(=O)c1ccc(-c2ccc(Cn3cnn(C/C(=C/F)CN)c3=O)s2)cc1 [Example 176, 4-[5-({1-[(2E)-2-(aminomethyl)-3-fluoroprop-2-en-1-yl]-5-oxo-1,5-dihydro-4H-1,2,4-triazol-4-yl}methyl)thiophen-2-yl]-N-methylbenzamide] | > 100000 | 1100 | 1.5 | 1900 |
| CS(=O)(=O)Nc1cccc(-c2ccc(Cn3cnn(C/C(=C/F)CN)c3=O)s2)c1 [Example 177, N-{3-[5-({1-[(2E)-2-(aminomethyl)-3-fluoroprop-2-en-1-yl]-5-oxo-1,5-dihydro-4H-1,2,4-triazol-4-yl}methyl)thiophen-2-yl]phenyl}methansulfonamide] | > 100000 | 570 | 1.5 | 300 |
| COc1cc(-c2ccc(Cn3cnn(C/C(=C/F)CN)c3=O)s2)cnc1OC [Example 178, 2-[(2E)-2-(aminomethyl)-3-fluoroprop-2-en-1-yl]-4-{[5-(5,6-dimethoxypyridin-3-yl)thiophen-2-yl]methyl}-2,4-dihydro-3H-1,2,4-triazol-3-one] | > 100000 | 280 | 0.8 | 700 |
| CCOc1ncc(-c2ccc(Cn3cnn(C/C(=C/F)CN)c3=O)s2)cn1 [Example 179, 2-[(2E)-2-(aminomethyl)-3-fluoroprop-2-en-1-yl]-4-{[5-(2-ethoxypyrimidin-5-yl)thiophen-2-yl]methyl}-2,4-dihydro-3H-1,2,4-triazol-3-one] | > 100000 | 89 | 1.2 | 8400 |
| CC(=O)c1ccc(-c2ccc(Cn3cnn(C/C(=C/F)CN)c3=O)s2)cc1 [Example 180, 4-{[5-(4-acetylphenyl)thiophen-2-yl]methyl}-2-[(2E)-2-(aminomethyl)-3-fluoroprop-2-en-1-yl]-2,4-dihydro-3H-1,2,4-triazol-3-one] | > 100000 | 1200 | 0.9 | 410 |
| CS(=O)(=O)c1cccc(-c2ccc(Cn3cnn(C/C(=C/F)CN)c3=O)s2)c1 [Example 181, 2-[(2E)-2-(aminomethyl)-3-fluoroprop-2-en-1-yl]-4-({5-[3-(methylsulfonyl)phenyl]thiophen-2-yl}methyl)-2,4-dihydro-3H-1,2,4-triazol-3-one] | > 100000 | 760 | 1.5 | 250 |
| CN(C)C(=O)c1cccc(-c2ccc(Cn3cnn(C/C(=C/F)CN)c3=O)s2)c1 [Example 182, 3-[5-({1-[(2E)-2-(aminomethyl)-3-fluoroprop-2-en-1-yl]-5-oxo-1,5-dihydro-4H-1,2,4-triazol-4-yl}methyl)thiophen-2-yl]-N,N-dimethylbenzamide] | > 100000 | 3600 | 3.7 | 6600 |
| CN(C)S(=O)(=O)c1cccc(-c2ccc(Cn3cnn(C/C(=C/F)CN)c3=O)s2)c1 [Example 183, 3-[5-({1-[(2E)-2-(aminomethyl)-3-fluoroprop-2-en-1-yl]-5-oxo-1,5-dihydro-4H-1,2,4-triazol-4-yl}methyl)thiophen-2-yl]-N,N-dimethylbenzenesulfonamide] | > 100000 | 440 | 1.2 | 220 |
